Source: US20230416275A1, “MODULATORS OF CYSTIC FIBROSIS TRANSMEMBRANE CONDUCTANCE REGULATOR” (VERTEX PHARMACEUTICALS INCORPORATED, priority 2020, published 2023)
pEC50: −log10 of the molar value. Where two headings read alike, the source gives them in different places.

What was measured:
[1] = target: T1, F508del in NIH 3T3 cells (Homo sapiens, UniProt P13569, DEL508-508); assay: 3T3 assay: membrane potential optical assay for F508del correction; type: cell-based, mouse; settings: for pEC50: read-out: 3T3 EC50; for Emax: NIH3T3, F508del NIH 3T3 cells, read-out: 3T3 Max Activity (%); for Emax / 3T3 Max Activity (%): efficacy compared to lumacaftor in combination with acutely added 300 nM Ivacaftor
T1 construct: expressed in transfected cells
T1 sequence (P13569 with tags, fused parts or gaps DEL508-508): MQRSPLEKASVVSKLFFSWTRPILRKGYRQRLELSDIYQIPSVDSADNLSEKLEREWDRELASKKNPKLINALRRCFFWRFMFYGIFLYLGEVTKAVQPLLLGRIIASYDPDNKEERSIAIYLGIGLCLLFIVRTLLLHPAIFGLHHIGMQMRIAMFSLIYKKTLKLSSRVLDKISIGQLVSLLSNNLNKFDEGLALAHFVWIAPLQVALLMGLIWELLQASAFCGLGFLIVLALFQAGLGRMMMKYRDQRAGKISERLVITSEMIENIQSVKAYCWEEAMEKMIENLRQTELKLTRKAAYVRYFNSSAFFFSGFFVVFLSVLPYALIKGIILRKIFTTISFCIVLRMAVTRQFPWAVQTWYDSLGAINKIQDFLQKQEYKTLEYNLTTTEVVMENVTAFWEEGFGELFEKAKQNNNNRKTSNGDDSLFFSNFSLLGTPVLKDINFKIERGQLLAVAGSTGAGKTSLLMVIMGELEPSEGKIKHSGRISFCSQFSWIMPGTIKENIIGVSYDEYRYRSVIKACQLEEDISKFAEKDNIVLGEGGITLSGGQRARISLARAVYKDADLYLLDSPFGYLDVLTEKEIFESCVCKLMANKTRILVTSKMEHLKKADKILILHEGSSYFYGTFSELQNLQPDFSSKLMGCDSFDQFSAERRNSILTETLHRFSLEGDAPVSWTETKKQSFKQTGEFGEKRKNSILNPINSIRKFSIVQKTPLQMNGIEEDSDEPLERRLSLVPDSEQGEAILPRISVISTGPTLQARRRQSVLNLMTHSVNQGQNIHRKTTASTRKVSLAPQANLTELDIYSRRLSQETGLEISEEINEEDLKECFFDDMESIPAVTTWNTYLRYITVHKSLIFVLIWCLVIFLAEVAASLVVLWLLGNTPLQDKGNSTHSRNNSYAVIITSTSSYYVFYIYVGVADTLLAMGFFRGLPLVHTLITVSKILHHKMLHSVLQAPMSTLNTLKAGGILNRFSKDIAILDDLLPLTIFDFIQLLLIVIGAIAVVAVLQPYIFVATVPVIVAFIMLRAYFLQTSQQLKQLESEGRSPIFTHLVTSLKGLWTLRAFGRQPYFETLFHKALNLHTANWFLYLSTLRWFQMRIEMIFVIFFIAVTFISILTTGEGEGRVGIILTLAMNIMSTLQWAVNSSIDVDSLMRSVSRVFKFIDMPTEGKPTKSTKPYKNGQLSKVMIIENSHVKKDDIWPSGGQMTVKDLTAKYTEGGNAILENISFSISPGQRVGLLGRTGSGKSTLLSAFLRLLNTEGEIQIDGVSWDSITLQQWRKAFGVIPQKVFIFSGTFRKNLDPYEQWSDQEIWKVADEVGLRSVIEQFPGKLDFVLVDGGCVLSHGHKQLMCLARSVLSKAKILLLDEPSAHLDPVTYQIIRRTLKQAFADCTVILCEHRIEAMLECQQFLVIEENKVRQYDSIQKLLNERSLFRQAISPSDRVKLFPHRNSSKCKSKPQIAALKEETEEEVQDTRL
Outline: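 NIH3T3 mouse fibroblasts stably expressing F508del incubated with corrector compounds at a range of concentrations for 16-24 h at 37 °C, then loaded with voltage-sensing redistribution dye. Single addition of forskolin with Cl− gradient (chloride-free gluconate bath vs. NaCl bath, pH 7.4); membrane potential change read by fluorescence on FLIPR.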

[2] = target: CFTR-mediated chloride transport in human intestinal epithelial enteroid cells (Homo sapiens, UniProt P13569); assay: Membrane potential dye, Enteroid Assay A; type: cell-based; settings: for Ent. A Max Activity (%): % of chloride transport of triple combination control (3 μM N-[(6-amino-2-pyridyl)sulfonyl]-6-(3-fluoro-5-isobutoxy-phenyl)-2-[(4S)-2,2,4-trimethylpyrrolidin-1-yl]pyridine-3-carboxamide, 3 μM tezacaftor, 300 nM acute ivacaftor); for pEC50: enteroid cells, 18-24 hours incubation, acute 10 μM forskolin and 300 nM ivacaftor, read-out: Ent. A EC50
Chain of CFTR-mediated chloride transport in human intestinal epithelial enteroid cells (P13569 with tags, fused parts or gaps DEL508-508): as above
Outline: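 Enteroids seeded at 5000 cells/well were exposed to test compound in IEMM for 18-24 h at 37 °C, then loaded with methyl oxonol membrane potential dye. Chloride transport was triggered in chloride-free buffer with 10 μM forskolin, 100 μM IBMX and 300 nM Compound III, read by fluorescence for 15 min and expressed as % of a triple-combination control.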

[3] = F508del NIH 3T3 cells, compound incubation 18-24 hours at 37° C., forskolin activation

Row | Compound | pEC50 [1, 3] | Emax [1] | pEC50 [2] | Ent. A Max Activity (%) [2] | further results
1 | Cc1cccc(C)c1-c1cc2nc(n1)NS(=O)(=O)c1cccc(n1)NC(=O)C1CC(CN(C(=O)OC(C)(C)C)C1)O2 (centres unmarked) |  |  |  |  | ring closure, yield after HPLC (from Cc1cccc(C)c1-c1cc(OC2CC(C(=O)Oc3c(F)c(F)c(F)c(F)c3F)CN(C(=O)OC(C)(C)C)C2)nc(NS(=O)(=O)c2cccc(N)n2)n1, amide bond, 14-membered ring, none (thermal, OPfp ester), NMP, 10.1 mM, 140.0 °C, 5.0 h, 5 steps): 1%
2 | Cc1ccccc1-c1cc2nc(n1)NS(=O)(=O)c1cccc(c1)Nc1cccc(c1)O2 |  |  |  |  | ring closure, yield after HPLC (other bond, 13-membered ring, CuI/pyrrole-2-carboxylic acid/K3PO4, DMSO, 65.2 mM, 3 steps): 2%
3 | Cc1cccc(C)c1-c1cc2nc(n1)NS(=O)(=O)c1cccc(c1)NC(=O)C1CCCC(C1)O2 (mixture of isomers) [Compound 67, 5-(2,6-Dimethylphenyl)-9,9-dioxo-2-oxa-9λ^6-thia-6,8,15,23-tetraazatetracyclo[15.3.1.13,7.110,14]tricosa-3,5,7(23),10(22),11,13-hexaen-16-one] | > 6.00 | > 60% |  |  | ring closure, yield after HPLC (amide bond, 14-membered ring, HATU/DIEA, DMF, 100.0 mM, 3 steps): 20%
4 | Cc1cccc(C)c1-c1cc2nc(n1)NS(=O)(=O)c1cccc(c1)NC(=O)[C@@H]1C[C@@H](CN(C(=O)C(C)(C)C)C1)O2 [Compound 46] | > 6.00 | > 60% | 5.52 to 6.00 | +++ (+++ is >60%) | 
5 | Cc1cccc(C)c1-c1cc2nc(n1)NS(=O)(=O)c1cccc(c1)NC(=O)[C@H]1CNC[C@@H](C1)O2 [Compound 47] |  | 30 to 60% |  | + (+ is <30%) | 
6 | Cc1cccc(C)c1-c1cc2nc(n1)NS(=O)(=O)c1cccc(c1)NC(=O)[C@@H]1CNC[C@H](C1)O2 [Compound 48] | 5.52 to 6.00 | > 60% |  | ++ (++ is 30-60%) | 
7 | Cc1cccc(C)c1-c1cc2nc(n1)NS(=O)(=O)c1cccc(c1)NC(=O)[C@H]1CNC[C@H](C1)O2 [Compound 49] | 5.52 to 6.00 | > 60% |  | + (+ is <30%) | 
8 | O=C1Nc2cccc(c2)S(=O)(=O)Nc2nc(cc(-c3cccc4ccccc34)n2)Oc2cccc1c2 [Compound 58, 5-(1-Naphthyl)-9,9-dioxo-2-oxa-9λ^6-thia-6,8,15,23-tetraazatetracyclo[15.3.1.13,7.110,14]tricosa-1(20),3,5,7(23),10(22),11,13,17(21),18-nonaen-16-one] | > 6.00 | > 60% | 5.52 to 6.00 | ++ (++ is 30-60%) | 
9 | Cc1ccccc1-c1cc2nc(n1)NS(=O)(=O)c1cccc(c1)NCc1cccc(c1)O2 [Compound 62, 5-(o-Tolyl)-2-oxa-9λ^6-thia-6,8,15,23-tetraazatetracyclo[15.3.1.13,7.110,14]tricosa-1(20),3,5,7(23),10(22),11,13,17(21),18-nonaene 9,9-dioxide] | > 6.00 |  |  |  | ring closure, yield after HPLC (amine bond, 14-membered ring, NaBH(OAc)3/TFA, AcOH, 3 steps): 1%
10 | Cc1ccccc1-c1cc2nc(n1)NS(=O)(=O)c1cccc(c1)NC(=O)c1ccc(cc1)O2 [Compound 63, 5-(o-Tolyl)-9,9-dioxo-2-oxa-9λ^6-thia-6,8,15,23-tetraazatetracyclo[15.2.2.13,7.110,14]tricosa-1(19),3,5,7(23),10(22),11,13,17,20-nonaen-16-one] |  |  |  |  | ring closure, yield after HPLC (amide bond, 15-membered ring, HATU/DIEA, DMF, 3 steps): 1%; EC50 ([1]; 3T3 EC50 (μM), F508del NIH 3T3 cells, compound incubation 18-24 hours at 37° C., forskolin activation): 1 to 3 µM
11 | Cc1cccc(C)c1-c1cc2nc(n1)NS(=O)(=O)c1cccc(c1)NC(=O)C1CC(CN(C(=O)OC(C)(C)C)C1)O2 (centres unmarked) [Compound 123] | > 6.00 | > 60% | > 6.00 | ++ (++ is 30-60%) | 
12 | Cc1cccc(C)c1-c1cc2nc(n1)NS(=O)(=O)c1cccc(c1)NC(=O)C1CC(CN(C(=O)OC(C)(C)C)C1)O2 (centres unmarked) [Compound 124] | 5.52 to 6.00 |  | 4.52 to 5.52 | ++ (++ is 30-60%) | 3T3 Max Activity (%) ([1]; F508del NIH 3T3 cells): +++ (+++ is >60%)

Now from value to compound, other results behind:

Row | pEC50 [1, 3] | Emax [1] | pEC50 [2] | Compound | Ent. A Max Activity (%) [2] | further results
13 |  | < 30% |  | Cc1cccc(C)c1-c1cc2nc(n1)NS(=O)(=O)c1cccc(c1)NC(=O)[C@@H]1CNC[C@@H](C1)O2 [Compound 50] | + (+ is <30%) | 
14 | 4.52 to 5.52 |  | 4.52 to 5.52 | Cc1cccc(C)c1-c1cc2nc(n1)NS(=O)(=O)c1cccc(c1)NC(=O)C1CNCC(C1)O2 (centres unmarked) [Compound 51] | ++ (++ is 30-60%) | 3T3 Max Activity (%) ([1]; F508del NIH 3T3 cells): +++ (+++ is >60%)
15 |  |  | 4.52 to 5.52 | Cc1cccc(C)c1-c1cc2nc(n1)NS(=O)(=O)c1cccc(c1)NC(=O)C1CNCC(C1)O2 (centres unmarked) [Compound 52] | + (+ is <30%) | 3T3 Max Activity (%) ([1]; F508del NIH 3T3 cells): + (+ is <30%)
16 | > 6.00 | > 60% | 4.52 to 5.52 | Cc1cccc(C)c1-c1cc2nc(n1)NS(=O)(=O)c1cccc(c1)NC(=O)c1cccc(c1)O2 [Compound 53, 5-(2,6-Dimethylphenyl)-9,9-dioxo-2-oxa-9λ^6-thia-6,8,15,23-tetraazatetracyclo[15.3.1.13,7.110,14]tricosa-1(20),3,5,7(23),10(22),11,13,17(21),18-nonaen-16-one] | +++ (+++ is >60%) | 
17 | > 6.00 | > 60% |  | Cc1ccccc1-c1cc2nc(n1)NS(=O)(=O)c1cccc(c1)NC(=O)c1cccc(c1)O2 [Compound 54, 5-(o-Tolyl)-9,9-dioxo-2-oxa-9λ^6-thia-6,8,15,23-tetraazatetracyclo[15.3.1.13,7.110,14]tricosa-1(20),3,5,7(23),10(22),11,13,17(21),18-nonaen-16-one] |  | ring closure, yield after HPLC (from Cc1ccccc1-c1cc(Oc2cccc(C(=O)O)c2)nc(NS(=O)(=O)c2cccc(N)c2)n1, amide bond, 14-membered ring, HATU/DIEA, DMF, 81.2 mM, 0.33 h): 45%
18 | > 6.00 | > 60% | > 6.00 | Cc1ccc2cc1Oc1cc(-c3c(C)cccc3C)nc(n1)NS(=O)(=O)c1cccc(c1)NC2=O [Compound 57, 5-(2,6-Dimethylphenyl)-20-methyl-2-oxa-9λ^6-thia-6,8,15,23-tetraazatetracyclo[15.3.1.13,7.110,14]tricosa-1(21),3(23),4,6,10,12,14(22),17,19-nonaene-9,9,16-trione] | ++ (++ is 30-60%) | 
19 | > 6.00 | > 60% |  | Cc1cccc(C)c1-c1cc2nc(n1)NS(=O)(=O)c1cccc(c1)NC(=O)CCCCO2 [Compound 72, 6-(2,6-Dimethylphenyl)-2,2-dioxo-9-oxa-2λ^6-thia-3,5,15,21-tetrazatricyclo[14.3.1.14,8]henicosa-1(20),4(21),5,7,16,18-hexaen-14-one] |  | ring closure, yield after HPLC (amide bond, 15-membered ring, HATU/DIEA, DMF, 5 steps): 3%
20 |  | < 30% |  | Cc1cccc(C)c1-c1cc2nc(c1)Oc1cccc(c1)C(=O)Nc1cccc(c1)S(=O)(=O)N2 [Compound 76, 5-(2,6-Dimethylphenyl)-9,9-dioxo-2-oxa-9λ^6-thia-8,15,23-triazatetracyclo[15.3.1.13,7.110,14]tricosa-1(21),3(23),4,6,10,12,14(22),17,19-nonaen-16-one] | + (+ is <30%) | 
21 | > 6.00 | > 60% | 4.52 to 5.52 | CC(C)c1ccccc1-c1cc2nc(n1)NS(=O)(=O)c1cccc(c1)NC(=O)c1cccc(c1)O2 [Compound 81] | ++ (++ is 30-60%) | 
22 | > 6.00 | > 60% | 4.52 to 5.52 | Cc1cccc(C)c1-c1cc2nc(n1)NS(=O)(=O)c1cccc(c1)NC(=O)CCc1cccc(c1)O2 [Compound 108] | +++ (+++ is >60%) | 
23 | 5.52 to 6.00 | > 60% | 4.52 to 5.52 | Cc1cccc(C)c1-c1cc2nc(n1)NS(=O)(=O)c1cccc(c1)NC(=O)Cc1cccc(c1)O2 [Compound 109] | ++ (++ is 30-60%) | 
24 | > 6.00 | > 60% | 5.52 to 6.00 | Cc1cc2cc(c1)C(=O)Nc1cccc(c1)S(=O)(=O)Nc1nc(cc(-c3c(C)cccc3C)n1)O2 [Compound 110] | ++ (++ is 30-60%) | 
25 | > 6.00 | > 60% | 4.52 to 5.52 | Cc1ccc2cc1C(=O)Nc1cccc(c1)S(=O)(=O)Nc1nc(cc(-c3c(C)cccc3C)n1)O2 [Compound 111] | ++ (++ is 30-60%) | 
26 | > 6.00 | > 60% | 5.52 to 6.00 | Cc1cccc(C)c1-c1cc2nc(n1)NS(=O)(=O)c1cccc(c1)NC(=O)c1ccc(Cl)c(c1)O2 [Compound 117] | +++ (+++ is >60%) | 
27 | > 6.00 | > 60% | 5.52 to 6.00 | Cc1cccc(C)c1-c1cc2nc(n1)NS(=O)(=O)c1cccc(c1)NC(=O)c1cc(Cl)cc(c1)O2 [Compound 118] | +++ (+++ is >60%) | 
